# Assay results from patent publication US8653056B2, “Method of preparation of a soluble formulation of water-insoluble pentacyclic and tetracyclic terpenoids, a soluble formulation of a pentacyclic or tetracyclic terpenoid and a pharmaceutical composition containing this soluble formulation” (Univerzita Karlova V Praze, Prirodovedecka Fakulta, priority 2006, dated 2014).
# Assay: Concentration of dissolved triterpenoid in the aqueous cyclodextrin solution (HPLC-ESI MS)
# Format: physicochemical
# Details: solution method A: water, saturated sodium hydrogencarbonate solution, ethanol, 2-hydroxypropyl-γ-cyclodextrin, 50° C.
# Protocol: (§1) Into the resulting colourless, viscous solution, soluble triterpene derivative (1.50 g) is added at once and the mixture is again vigorously stirred at the temperature of 50° C. […] After the triterpenoid is completely dissolved, the resulting clear solution is cooled to room temperature, filtered with a syringe filter (hydrophilic, pore size 0.22 μm) in order to be sterile and is placed in a refrigerator.
# as §1, with “Method B: In a mixture of water (14.0 ml) and propylene glycol (6.0 ml), 2-hydroxypropyl-γ-cyklodextrin (7.00 g) is dissolved at the temperature of 50° C. under vigorous stirring. Into” for “Into”, “derivate (1.00” for “derivative (1.50”, “and” for “and the mixture”
# Analytic Determination of the Concentration of Dissolved Triterpenoids in the Application Form and in Plasma Samples
# HPLC-ESI MS technique was used or the determination of the concentration of dissolved triterpenoids. The samples were measured in one analytical batch with calibration solutions and blind control. The sample for the measurement was prepared from 50 μl of aqueous solution containing the inclusion compound by dilution with methanol to the volume of 10 ml. Subsequently, 10 μl of the sample solution after the first dilution is further diluted to 1 ml by the mobile phase. The blind control was obtained from 50 μl of pre-prepared aqueous solution of 2-hydroxypropyl-γ-cyklodextrin by dilution with methanol to 10 ml. Subsequently, 10 μl of the blind control solution after the first dilution is further diluted to 1 ml by methanol. Stock solutions of standards (concentration 0.2 mg/ml) were prepared by weighing 2.00 mg of analyte to 10 ml graduated flask and dissolution in methanol. The calibration samples were then prepared by dilution of the stock solution with mobile phase (0.4 μg/ml resp. 4 μg/ml).
# The concentration was determined by comparison with standard and calculated to the original solution containing the inclusion compound.
row,SMILES,Conc. of dissolved substance [µg/mL]
1,"C=C(C)C1CCC2(COC(=O)CCC(=O)O)CCC3(C)C(CCC4C5(C)CCC(OC(=O)CCC(=O)O)C(C)(C)C5CCC43C)C12 (centres unmarked) [1a, betulin dihemisuccinate]",54000
2,"C=C(C)[C@@H]1CC[C@]2(COC(=O)c3ccccc3C(=O)O)CC[C@]3(C)[C@H](CC[C@@H]4[C@@]5(C)CC[C@H](OC(=O)c6ccccc6C(=O)O)C(C)(C)[C@@H]5CC[C@]43C)[C@@H]12 [1b, betulin dihemiphtalate]",39000
3,C=C(C)[C@@H]1CC[C@]2(C(=O)OCC)CC[C@]3(C)[C@H](CC[C@@H]4[C@@]5(C)CC[C@H](OC(=O)c6ccccc6C(=O)O)C(C)(C)[C@@H]5CC[C@]43C)[C@@H]12 [2c],41000

# Further lines, results first:
row,Conc. of dissolved substance [µg/mL],SMILES
1,43000,C=C(C)C1CCC2(C(=O)OC)CCC3(C)C(CCC4C5(C)CCC(OC(=O)C6CC=CCC6C(=O)O)C(C)(C)C5CCC43C)C12 (mixture of isomers) [2m]
2,51000,C=C(C)[C@@H]1CC[C@]2(C(=O)O)CC[C@]3(C)[C@H](CC[C@@H]4[C@@]5(C)CC[C@H](OC(=O)CCC(=O)O)C(C)(C)[C@@H]5CC[C@]43C)[C@@H]12 [2e]
3,59000,C=C(C)[C@@H]1CC[C@]2(C(=O)O[C@@H]3O[C@H](CO)[C@@H](O)[C@H](O)[C@H]3O)CC[C@]3(C)[C@H](CC[C@@H]4[C@@]5(C)CC[C@H](O)C(C)(C)[C@@H]5CC[C@]43C)[C@@H]12 [2j]
4,59000,CC(=O)O[C@H]1CC[C@]2(C)[C@H]3CC[C@@H]4C5=C(C(C)C)C(=O)C[C@]5(C(=O)OCC(=O)O)CC[C@@]4(C)[C@]3(C)CC[C@H]2C1(C)C [4a]
5,53000,CCOC(=O)[C@@]12CC[C@]3(C)[C@H](CC[C@@H]4[C@@]5(C)CC[C@H](OC(=O)CCC(=O)O)C(C)(C)[C@@H]5CC[C@]43C)C1=C(C(C)C)C(=O)C2 [4e]

# Same assay, conditions: solution method B: water, propylene glycol, 2-hydroxypropyl-γ-cyclodextrin, 50° C.
row,SMILES,Conc. of dissolved substance
1,"C=C(C)[C@@H]1CC[C@]2(CO[C@@H]3O[C@H](CO)[C@@H](O)[C@H](O)[C@H]3O)CC[C@]3(C)[C@H](CC[C@@H]4[C@@]5(C)CC[C@H](O[C@@H]6O[C@H](CO)[C@@H](O)[C@H](O)[C@H]6O)C(C)(C)[C@@H]5CC[C@]43C)[C@@H]12 [1c, betulin diglucoside]",55000 µg/mL
2,"C=C(C)[C@@H]1CC[C@]2(C(=O)OCC)CC[C@]3(C)[C@H](CC[C@@H]4[C@@]5(C)CC[C@H](O)C(C)(C)[C@@H]5CC[C@]43C)[C@@H]12 [2a, Ethyl-betulinate]","n (n = concentration lower than the detection threshold, i.e. 1 ng/ml)"
3,C=C(C)[C@@H]1CC[C@]2(C(=O)OCC)CC[C@]3(C)[C@H](CC[C@@H]4[C@@]5(C)CC[C@H](O[C@@H]6O[C@H](CO)[C@@H](O)[C@H](O)[C@H]6O)C(C)(C)[C@@H]5CC[C@]43C)[C@@H]12 [2d],43000 µg/mL
4,"C=C(C)[C@@H]1CC[C@]2(C(=O)OC)CC[C@]3(C)[C@H](CC[C@@H]4[C@@]5(C)CC[C@H](O)C(C)(C)[C@@H]5CC[C@]43C)[C@@H]12 [2h, Methyl betulinate]","n (n = concentration lower than the detection threshold, i.e. 1 ng/ml)"
5,C=C(C)[C@@H]1CC[C@]2(C(=O)O[C@@H]3O[C@H](CO)[C@@H](O)[C@H](O)[C@H]3O)CC[C@]3(C)[C@H](CC[C@@H]4[C@@]5(C)CC[C@H](O)C(C)(C)[C@@H]5CC[C@]43C)[C@@H]12 [2j],70000 µg/mL
6,C=C(C=O)[C@@H]1CC[C@]2(C(=O)OCC)CC[C@]3(C)[C@H](CC[C@@H]4[C@@]5(C)CC[C@H](O)C(C)(C)[C@@H]5CC[C@]43C)[C@@H]12 [3a],"n (n = concentration lower than the detection threshold, i.e. 1 ng/ml)"
7,CC(=O)O[C@H]1CC[C@]2(C)[C@H]3CC[C@@H]4C5=C(C(C)C)C(=O)C[C@]5(C(=O)OCC[N+](C)(C)C)CC[C@@]4(C)[C@]3(C)CC[C@H]2C1(C)C.[Br-] [4b],47000 µg/mL
8,CC(=O)O[C@H]1CC[C@]2(C)[C@H]3CC[C@@H]4C5=C(C(C)C)C(=O)C[C@]5(C(=O)OCC[n+]5ccccc5)CC[C@@]4(C)[C@]3(C)CC[C@H]2C1(C)C.[Br-] [4c],33000 µg/mL
9,COC(=O)C12CCC3(C)C(CCC4C5(C)CCC(O)C(C)(C)C5CCC43C)C1=C(C(C)C)C(=O)C2 (centres unmarked) [4d],"n (n = concentration lower than the detection threshold, i.e. 1 ng/ml)"
